Measured values from patent US10533010B2, “Substituted indole Mcl-1 inhibitors” (Vanderbilt University, priority 2014, dated 2020).
Where two headings read alike, the source gives them in different places.

Molecular target: recombinant Mcl-1 (residues 172-327) (Homo sapiens (Human), UniProt Q07820)
Test: Fluorescence polarization anisotropy competition assay (FITC-Bak or FITC-Bim BH3 peptide) with Mcl-1
Assay type: binding
Conditions: Table 2, FITC-Bak or FITC-Bim peptide competition, Ki converted from IC50, read-out: Ki for Inhibition of Mcl-1

Sequence of recombinant Mcl-1 (residues 172-327) (Q07820 172-327): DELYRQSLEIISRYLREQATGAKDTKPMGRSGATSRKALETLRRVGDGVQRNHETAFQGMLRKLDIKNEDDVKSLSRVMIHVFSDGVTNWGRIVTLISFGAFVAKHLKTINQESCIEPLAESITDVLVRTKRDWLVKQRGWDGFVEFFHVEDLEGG

Row | SMILES | Ki (Ki bins given in nM) | Ki (Ki bins given in μM)
1 | Cc1cc(OCCCc2c3n(c4c(-c5c(C)nn(C)c5C)c(Cl)ccc24)CCCN(c2cccc(-c4nn[nH]n4)c2)C3=O)cc(C)c1Cl [I-354, 2-(3-(2H-tetrazol-5-yl)phenyl)-8-chloro-1-(3-(4-chloro-3,5-dimethylphenoxy)propyl)-7-(1,3,5-trimethyl-1H-pyrazol-4-yl)-2,3,4,5-tetrahydro-1H-[1,4]diazepino[1,2-a]indol-1-one] | < 50 nM | –
2 | Cc1cc(OCCCc2c3n(c4c(-c5c(C)nn(C)c5C)c(Cl)ccc24)C[C@@H](C)N(Cc2ccc(C(=O)O)cn2)C3=O)cc(C)c1Cl [I-122, (R)-6-((7-chloro-10-(3-(4-chloro-3,5-dimethylphenoxy)propyl)-3-methyl-1-oxo-6-(1,3,5-trimethyl-1H-pyrazol-4-yl)-3,4-dihydropyrazino[1,2-a]indol-2(1H)-yl)methyl)nicotinic acid] | < 50 nM | –
3 | Cc1cc(OCCCc2c(C(=O)NCC(=O)NS(=O)(=O)c3cccnc3)[nH]c3ccccc23)cc(C)c1Cl [I-6, 3-(3-(4-chloro-3,5-dimethylphenoxy)propyl)-N-(2-oxo-2-(pyridine-3-sulfonamido)ethyl)-1H-indole-2-carboxamide] | 301 to 500 nM | –
4 | Cc1cc(OCCCc2c3n(c4c(-c5c(C)nn(C)c5C)c(Cl)ccc24)CC(C)CN(Cc2ccc(C(=O)O)cc2)C3=O)cc(C)c1Cl (stereo not shown) [I-133, 4-((8-chloro-11-(3-(4-chloro-3,5-dimethylphenoxy)propyl)-4-methyl-1-oxo-7-(1,3,5-trimethyl-1H-pyrazol-4-yl)-4,5-dihydro-1H-[1,4]diazepino[1,2-a]indol-2(3H)-yl)methyl)benzoic acid] | < 50 nM | –
5 | Cc1cc(OCCCc2c3n(c4c(-c5c(C)nn(C)c5C)c(Cl)ccc24)C[C@@H](C)N(c2ccc(C(=O)O)cc2)C3=O)cc(C)c1Cl [I-156, (R)-4-(7-chloro-10-(3-(4-chloro-3,5-dimethylphenoxy)propyl)-3-methyl-1-oxo-6-(1,3,5-trimethyl-1H-pyrazol-4-yl)-3,4-dihydropyrazino[1,2-a]indol-2(1H)-yl)benzoic acid] | < 50 nM | –
6 | Cc1cnccc1-c1cc(C(=O)O)cc(N2CCCn3c(c(CCCOc4cc(C)c(Cl)c(C)c4)c4ccc(Cl)c(-c5c(C)nn(C)c5C)c43)C2=O)c1 [I-233, 3-(8-chloro-11-(3-(4-chloro-3,5-dimethylphenoxy)propyl)-1-oxo-7-(1,3,5-trimethyl-1H-pyrazol-4-yl)-4,5-dihydro-1H-[1,4]diazepino[1,2-a]indol-2(3H)-yl)-5-(3-methylpyridin-4-yl)benzoic acid] | < 50 nM | –
7 | Cc1cc(OCCCc2c3n(c4c(-c5c(C)nn(C)c5C)cccc24)CCCN(Cc2ccc(N4CCCC4)c(C(=O)O)c2)C3=O)cc(C)c1Cl [I-78, 5-((11-(3-(4-chloro-3,5-dimethylphenoxy)propyl)-1-oxo-7-(1,3,5-trimethyl-1H-pyrazol-4-yl)-4,5-dihydro-1H-[1,4]diazepino[1,2-a]indol-2(3H)-yl)methyl)-2-(pyrrolidin-1-yl)benzoic acid] | 101 to 299 nM | –
8 | Cc1cc(OCCCc2c(C(=O)NCc3cc(C(=O)O)cc(N4CCN(CCC(C)C)CC4)n3)[nH]c3c(-c4c(C)nn(C)c4C)c(Cl)ccc23)cc(C)c1Cl [I-285, 2-((6-chloro-3-(3-(4-chloro-3,5-dimethylphenoxy)propyl)-7-(1,3,5-trimethyl-1H-pyrazol-4-yl)-1H-indole-2-carboxamido)methyl)-6-(4-isopentylpiperazin-1-yl)isonicotinic acid] | < 50 nM | –
9 | Cc1cc(OCCCc2c(C(=O)N3CCc4ccc(C(=O)O)cc43)[nH]c3c(-c4c(C)nn(C)c4C)c(Cl)ccc23)cc(C)c1Cl [I-192, 1-(6-chloro-3-(3-(4-chloro-3,5-dimethylphenoxy)propyl)-7-(1,3,5-trimethyl-1H-pyrazol-4-yl)-1H-indole-2-carbonyl)indoline-6-carboxylic acid] | < 50 nM | –
10 | Cc1cc(OCCCc2c(C(=O)Nc3cc(Br)cc(C(=O)O)c3)[nH]c3c(-c4c(C)nn(C)c4C)c(Cl)ccc23)cc(C)c1Cl [I-217, 3-bromo-5-(6-chloro-3-(3-(4-chloro-3,5-dimethylphenoxy)propyl)-7-(1,3,5-trimethyl-1H-pyrazol-4-yl)-1H-indole-2-carboxamido)benzoic acid] | < 50 nM | –
11 | Cc1cc(OCCCc2c3n(c4c(-c5c(C)nn(C)c5C)c(Cl)ccc24)CCCN(c2cc(CN4CCCC4)cc(C(=O)O)c2)C3=O)cc(C)c1Cl [I-225, 3-(8-chloro-11-(3-(4-chloro-3,5-dimethylphenoxy)propyl)-1-oxo-7-(1,3,5-trimethyl-1H-pyrazol-4-yl)-4,5-dihydro-1H-[1,4]diazepino[1,2-a]indol-2(3H)-yl)-5-(pyrrolidin-1-ylmethyl)benzoic acid] | < 50 nM | –
12 | Cc1cc(OCCCc2c(C(=O)NCc3ccc(C(=O)O)o3)[nH]c3c(-c4c(C)n[nH]c4C)cccc23)cc(C)c1Cl [I-62, 5-((3-(3-(4-chloro-3,5-dimethylphenoxy)propyl)-7-(3,5-dimethyl-1H-pyrazol-4-yl)-1H-indole-2-carboxamido)methyl)furan-2-carboxylic acid] | < 50 nM | –
13 | Cc1cc(OCCCc2c(C(=O)NCCC(=O)NS(=O)(=O)c3ccc([N+](=O)[O-])cc3)[nH]c3ccccc23)cc(C)c1Cl [I-22, 3-(3-(4-chloro-3,5-dimethylphenoxy)propyl)-N-(3-((4-nitrophenyl)sulfonamido)-3-oxopropyl)-1H-indole-2-carboxamide] | 101 to 299 nM | –
14 | Cc1cc(OCCCc2c(C(=O)N3CCC(NC(=O)OC(C)(C)C)CC3)[nH]c3ccccc23)cc(C)c1Cl [I-48, tert-butyl (1-(3-(3-(4-chloro-3,5-dimethylphenoxy)propyl)-1H-indole-2-carbonyl)piperidin-4-yl)carbamate] | – | 1000 to 9990 nM
15 | Cc1cc(OCCCc2c(C(=O)Nc3cc(C(=O)O)cc(N4CCOCC4)c3)[nH]c3c(-c4c(C)nn(C)c4C)c(Cl)ccc23)cc(C)c1Cl [I-208, 3-(6-chloro-3-(3-(4-chloro-3,5-dimethylphenoxy)propyl)-7-(1,3,5-trimethyl-1H-pyrazol-4-yl)-1H-indole-2-carboxamido)-5-morpholinobenzoic acid] | < 50 nM | –
16 | Cc1cc(OCCCc2c(C(=O)NCc3cc(C(=O)NCc4ccccc4)c(C)o3)[nH]c3c(-c4c(C)nn(C)c4C)cccc23)cc(C)c1Cl [I-275, N-((4-(benzylcarbamoyl)-5-methylfuran-2-yl)methyl)-3-(3-(4-chloro-3,5-dimethylphenoxy)propyl)-7-(1,3,5-trimethyl-1H-pyrazol-4-yl)-1H-indole-2-carboxamide] | – | 1000 to 9990 nM
17 | Cc1cc(OCCCc2c3n(c4c(-c5c(C)nn(C)c5C)c(Cl)ccc24)[C@@H](C)CN(c2cc(C(=O)O)cc4c2ccn4C)C3=O)cc(C)c1Cl [I-167, (S)-4-(7-chloro-10-(3-(4-chloro-3,5-dimethylphenoxy)propyl)-4-methyl-1-oxo-6-(1,3,5-trimethyl-1H-pyrazol-4-yl)-3,4-dihydropyrazino[1,2-a]indol-2(1H)-yl)-1-methyl-1H-indole-6-carboxylic acid] | < 50 nM | –
18 | Cc1cc(OCCCc2c(C(=O)NCc3cccc(C(=O)NS(=O)(=O)c4ccccc4C#N)c3)[nH]c3c(-c4c(C)n[nH]c4C)cccc23)cc(C)c1Cl [I-26, 3-(3-(4-chloro-3,5-dimethylphenoxy)propyl)-N-(3-(((2-cyanophenyl)sulfonyl)carbamoyl)benzyl)-7-(3,5-dimethyl-1H-pyrazol-4-yl)-1H-indole-2-carboxamide] | < 50 nM | –
19 | Cc1cc(OCCCc2c(C(=O)NCc3ccc(N4CCCCC4)c(C(=O)O)c3)[nH]c3c(-c4c(C)nn(C)c4C)cccc23)cc(C)c1Cl [I-73, 5-((3-(3-(4-chloro-3,5-dimethylphenoxy)propyl)-7-(1,3,5-trimethyl-1H-pyrazol-4-yl)-1H-indole-2-carboxamido)methyl)-2-(piperidin-1-yl)benzoic acid] | 301 to 500 nM | –
20 | Cc1cc(OCCCc2c3n(c4c(-c5c(C)nn(C)c5C)c(Cl)ccc24)CCCN(c2ccc(C(=O)O)c(C(F)(F)F)c2)C3=O)cc(C)c1Cl [I-93, 4-(8-chloro-11-(3-(4-chloro-3,5-dimethylphenoxy)propyl)-1-oxo-7-(1,3,5-trimethyl-1H-pyrazol-4-yl)-4,5-dihydro-1H-[1,4]diazepino[1,2-a]indol-2(3H)-yl)-2-(trifluoromethyl)benzoic acid] | < 50 nM | –
21 | CCOC(=O)c1ccc(N2CCN(C(=O)c3[nH]c4cc(Cl)ccc4c3CCCOc3cc(C)c(Cl)c(C)c3)CC2)cc1 [I-50, ethyl 4-(4-(6-chloro-3-(3-(4-chloro-3,5-dimethylphenoxy)propyl)-1H-indole-2-carbonyl)piperazin-1-yl)benzoate] | – | 10000 to 50000 nM
22 | Cc1cc(OCCCc2c(C(=O)Nc3cc(C(=O)O)cc(N(C)C)c3)[nH]c3c(-c4c(C)nn(C)c4C)c(Cl)ccc23)cc(C)c1Cl [I-215, 3-(6-chloro-3-(3-(4-chloro-3,5-dimethylphenoxy)propyl)-7-(1,3,5-trimethyl-1H-pyrazol-4-yl)-1H-indole-2-carboxamido)-5-(dimethylamino)benzoic acid] | < 50 nM | –
23 | Cc1cc(OCCCc2c3n(c4c(-c5c(C)nn(C)c5C)c(Cl)ccc24)CCCN(CCc2ccccc2C(=O)O)C3=O)cc(C)c1Cl [I-294, 2-(2-(8-chloro-11-(3-(4-chloro-3,5-dimethylphenoxy)propyl)-1-oxo-7-(1,3,5-trimethyl-1H-pyrazol-4-yl)-4,5-dihydro-1H-[1,4]diazepino[1,2-a]indol-2(3H)-yl)ethyl)benzoic acid] | < 50 nM | –
24 | COC(=O)c1cccc(N2CCN(C(=O)c3[nH]c4cc(Cl)ccc4c3CCCOc3cc(C)c(Cl)c(C)c3)CC2)c1 [I-52, methyl 3-(4-(6-chloro-3-(3-(4-chloro-3,5-dimethylphenoxy)propyl)-1H-indole-2-carbonyl)piperazin-1-yl)benzoate] | 501 to 999 nM | –
25 | Cc1cc(OCCCc2c3n(c4c(-c5c(C)nn(C)c5C)c(Cl)ccc24)CCN(c2cc(C(=O)O)c4ccn(C)c4c2)C3=O)cc(C)c1Cl [I-162, 6-(7-chloro-10-(3-(4-chloro-3,5-dimethylphenoxy)propyl)-1-oxo-6-(1,3,5-trimethyl-1H-pyrazol-4-yl)-3,4-dihydropyrazino[1,2-a]indol-2(1H)-yl)-1-methyl-1H-indole-4-carboxylic acid] | < 50 nM | –
